In US20240309016A1, “MACROCYCLIC HETEROCYCLE COMPOUNDS AND USE THEREOF” (TAKEDA PHARMACEUTICAL COMPANY LIMITED, priority 2023, published 2024):
Where two headings read alike, the source gives them in different places.

Assays:
[1] = target: T1, human OX2 receptor (Homo sapiens, UniProt O43614); experiment: Measurement of orexin type 2 receptor agonist activity (Experimental Example 2; Fluo-4 AM calcium fluorescence, FDSS μCELL); assay type: cell-based; details: compound at 3 μM; CHO cells expressing human OX2 receptor; DMSO = 0%, 10 nM orexin A (human) = 100%
T1 construct: expressed in transfected cells
T1 sequence (O43614 1-444): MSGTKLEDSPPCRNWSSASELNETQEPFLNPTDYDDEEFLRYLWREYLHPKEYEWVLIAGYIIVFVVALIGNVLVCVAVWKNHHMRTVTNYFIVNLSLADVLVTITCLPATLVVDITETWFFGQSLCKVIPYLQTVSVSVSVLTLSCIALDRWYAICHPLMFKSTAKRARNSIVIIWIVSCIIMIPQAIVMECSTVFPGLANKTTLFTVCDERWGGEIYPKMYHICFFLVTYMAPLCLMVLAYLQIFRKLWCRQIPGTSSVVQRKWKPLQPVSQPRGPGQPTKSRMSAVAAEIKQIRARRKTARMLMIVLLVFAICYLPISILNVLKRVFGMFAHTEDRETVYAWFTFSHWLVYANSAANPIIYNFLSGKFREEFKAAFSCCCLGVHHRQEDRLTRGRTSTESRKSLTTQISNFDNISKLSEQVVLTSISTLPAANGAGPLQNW
Outline: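 Agonism was tested in CHO-K1 cells stably expressing human OX2 receptor (residues 1-444), loaded with Fluo-4 AM plus probenecid. Calcium fluorescence was recorded for 1 min 40 s after compound addition. Activity (%) was scaled between DMSO (0%) and 10 nM orexin A (100%) and reported at 3 μM compound.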

Row | OX2R agonist activity (3 μM, %) [1] | Molecule | also measured
1 | – | Cc1ccc2nc1Oc1cccc(c1F)C[C@H]1[C@@H](NC(=O)OCc3ccccc3)C(F)(F)CN1C(=O)NC2 | ring closure, yield of all isomers (from Cc1ccc(CN)nc1Oc1cccc(C[C@@H]2NCC(F)(F)[C@@H]2NC(=O)OCc2ccccc2)c1F, other bond, di(N-succinimidyl) carbonate, THF, 2.0 mM, 70.0 °C, 5.2 h): 78.8%
2 | 107% | Cc1ccc2nc1Oc1cccc(c1)C[C@H]1[C@@H](NS(C)(=O)=O)CCN1C(=O)NC2 [Example 1, N-[(15aS,16S)-7-methyl-1-oxo-2,3,15a,16,17,18-hexahydro-1H,15H-4,8-(azeno)-10,14-(metheno)pyrrolo[1,2-j][1,8,10]oxadiazacyclo-heptadecin-16-yl]methanesulfonamide] | ring closure, yield of all isomers (from Cc1ccc(CN)nc1Oc1cccc(C[C@@H]2NCC[C@@H]2NS(C)(=O)=O)c1, other bond, CDI/DIPEA, DMF, 2.15 mM, 25.0 °C, 12.0 h): 29.9%
3 | 96% | Cc1ccc2nc1Oc1cccc(c1)C[C@H]1[C@@H](NS(C)(=O)=O)C(F)(F)CN1C(=O)NC2 [Example 2, N-[(15aS,16R)-17,17-difluoro-7-methyl-1-oxo-2,3,15a,16,17,18-hexahydro-1H,15H-4,8-(azeno)-10,14-(metheno)pyrrolo[1,2-j][1,8,10]oxadiazacyclo-heptadecin-16-yl]methanesulfonamide] | ring closure, yield of all isomers (from Cc1ccc(CN)nc1Oc1cccc(C[C@@H]2NCC(F)(F)[C@@H]2NS(C)(=O)=O)c1, other bond, CDI/DIPEA, DMF, 2.0 mM, 25.0 °C, 14.0 h): 7.6%
4 | 105% | Cc1ccc2nc1Oc1cccc(c1F)C[C@H]1[C@@H](NS(C)(=O)=O)C(F)(F)CN1C(=O)NC2 [Example 4, N-[(15aS,16R)-17,17,20-trifluoro-7-methyl-1-oxo-2,3,15a,16,17,18-hexahydro-1H,15H-4,8-(azeno)-10,14-(metheno)pyrrolo[1,2-j][1,8,10]oxadiazacyclo-heptadecin-16-yl]methanesulfonamide] | ring closure, yield of all isomers (from Cc1ccc(CN)nc1Oc1cccc(C[C@@H]2NCC(F)(F)[C@@H]2NS(C)(=O)=O)c1F, other bond, di(N-succinimidyl) carbonate/DIPEA, THF, 7.42 mM, 25.0 °C, 16.0 h): 40.1%
5 | 102% | CCS(=O)(=O)N[C@@H]1[C@@H]2Cc3cccc(c3F)Oc3nc(ccc3C)CNC(=O)N2CC1(F)F [Example 5, N-[(15aS,16R)-17,17,20-trifluoro-7-methyl-1-oxo-2,3,15a,16,17,18-hexahydro-1H,15H-4,8-(azeno)-10,14-(metheno)pyrrolo[1,2-j][1,8,10]oxadiazacyclo-heptadecin-16-yl]ethanesulfonamide] | ring closure, yield of all isomers (from CCS(=O)(=O)N[C@@H]1[C@H](Cc2cccc(Oc3nc(CN)ccc3C)c2F)NCC1(F)F, other bond, di(N-succinimidyl) carbonate/4-methylmorpholine/DIPEA, THF, 1.81 mM, 25.0 °C, 12.0 h): 21%
6 | 103% | Cc1ccc2nc1Oc1cccc(c1)C[C@H]1[C@@H](NS(C)(=O)=O)CCN1C(=O)CC2 [Example 7, N-[(1S,19aS)-11-methyl-5-oxo-2,3,6,7,19,19a-hexahydro-1H, 5H-8,12-(azeno)-14,18-(metheno)pyrrolo[2,1-h][1,9]oxazacycloheptadecin-1-yl]methanesulfonamide] | ring closure, yield of all isomers (from Cc1ccc(CCC(=O)O)nc1Oc1cccc(C[C@@H]2NCC[C@@H]2NS(C)(=O)=O)c1, amide bond, PyBOP/TEA, THF, 0.231 mM, 25.0 °C, 4.0 h): 20%
7 | 96% | Cc1ccc2nc1Oc1cccc(c1F)C[C@H]1[C@@H](NS(C)(=O)=O)[C@@H](F)CN1C(=O)NC2 [Example 10, N-[(15aS,16R,17S)-17,20-difluoro-7-methyl-1-oxo-2,3,15a,16,17,18-hexahydro-1H,15H-4,8-(azeno)-14,10-(metheno)pyrrolo[1,2-j][1,8,10]oxadiazacyclo-heptadecin-16-yl]methanesulfonamide] | ring closure, yield of all isomers (from Cc1ccc(CN)nc1Oc1cccc(C[C@@H]2NC[C@H](F)[C@@H]2NS(C)(=O)=O)c1F, other bond, CDI, THF, 2.12 mM, 25.0 °C, 18.0 h): 16.7%
8 | 101% | CCS(=O)(=O)N[C@H]1[C@@H](F)CN2C(=O)CCc3ccc(Cl)c(n3)Oc3cccc(c3F)C[C@@H]12 [Example 82, N-[(1R,2S,19aS)-11-chloro-2,20-difluoro-5-oxo-2,3,6,7,19,19a-hexahydro-1H,5H-12,8-(azeno)-14,18-(metheno)pyrrolo[2,1-h][1,9]oxazacycloheptadecin-1-yl]ethanesulfonamide] | –
9 | 96% | CO[C@@H]1C[C@H]2C(=O)N3CC(F)(F)[C@H](NS(C)(=O)=O)[C@@H]3Cc3cccc(c3F)Oc3nc(ncc3C)N2C1 [Example 83, N-[(2R,16aS,17R,21aS)-18,18,22-trifluoro-2-methoxy-8-methyl-21-oxo-2,3,16a,17,18,19,21,21a-octahydro-1H,16H-5,9-(azeno)-11,15-(metheno)dipyrrolo[1,2-g:1′,2′-j][1,5,7,10]oxatriazacyclo-heptadecin-17-yl]methanesulfonamide] | –
10 | 104% | Cc1ccc2nc1OCc1cccc(c1F)C[C@H]1[C@@H](NS(C)(=O)=O)C(F)(F)CN1C(=O)NC2 [Example 84, N-[(16aS,17R)-18,18,21-trifluoro-7-methyl-1-oxo-2,3,16a,17,18,19-hexahydro-1H,10H,16H-4,8-(azeno)-15,11-(metheno)pyrrolo[1,2-j][1,8,10]oxadiazacyclo-octadecin-17-yl]methanesulfonamide] | –
11 | 95% | CS(=O)(=O)N[C@@H]1[C@@H]2Cc3cccc(c3F)Oc3nc(cs3)CNC(=O)N2CC1(F)F [Example 85, N-[(14aS,15R)-16,16,19-trifluoro-1-oxo-2,3,14a,15,16,17-hexahydro-1H,14H-4,7-(azeno)-9,13-(metheno)pyrrolo[1,2-i][1,3,7,9]oxathiadiazacyclo-hexadecin-15-yl]methanesulfonamide] | –
12 | 105% | CCS(=O)(=O)N[C@H]1[C@@H](F)CN2C(=O)COc3ccc(C(F)F)c(n3)Oc3cccc(c3)C[C@@H]12 [Example 87, N-[(15aS,16R,17S)-7-(difluoromethyl)-17-fluoro-1-oxo-1,2,15a,16,17,18-hexahydro-15H-4,8-(azeno)-14,10-(metheno)pyrrolo[1,2-d][1,12,4]dioxazacyclo-heptadecin-16-yl]ethanesulfonamide] | –
13 | 109% | CS(=O)(=O)N[C@@H]1[C@@H]2Cc3cccc(c3F)Oc3nc(ccc3C3CC3)CNC(=O)N2CC1(F)F [Example 88, N-[(15aS,16R)-7-cyclopropyl-17,17,20-trifluoro-1-oxo-2,3,15a,16,17,18-hexahydro-1H,15H-4,8-(azeno)-14,10-(metheno)pyrrolo[1,2-j][1,8,10]oxadiazacyclo-heptadecin-16-yl]methanesulfonamide] | –
14 | 106% | CS(=O)(=O)N[C@@H]1[C@@H]2Cc3cccc(c3)Oc3nc(ccc3Cl)CNC(=O)N2CC1(F)F [Example 92, N-[(15aS,16R)-7-chloro-17,17-difluoro-1-oxo-2,3,15a,16,17,18-hexahydro-1H,15H-4,8-(azeno)-14,10-(metheno)pyrrolo[1,2-j][1,8,10]oxadiazacyclohepta-decin-16-yl]methanesulfonamide] | –
15 | 109% | CS(=O)(=O)N[C@@H]1[C@@H]2Cc3cccc(c3)Oc3nc(ccc3C(F)F)CNC(=O)N2CC1(F)F [Example 93, N-[(15aS,16R)-7-(difluoromethyl)-17,17-difluoro-1-oxo-2,3,15a,16,17,18-hexahydro-1H,15H-4,8-(azeno)-14,10-(metheno)pyrrolo[1,2-j][1,8,10]oxadiazacyclohepta-decin-16-yl]methanesulfonamide] | –
16 | 109% | CS(=O)(=O)N[C@@H]1[C@@H]2Cc3cccc(c3F)COc3nc(ccc3Cl)CNC(=O)N2CC1(F)F [Example 94, N-[(16aS,17R)-7-chloro-18,18,21-trifluoro-1-oxo-2,3,16a,17,18,19-hexahydro-1H,10H,16H-4,8-(azeno)-15,11-(metheno)pyrrolo[1,2-j][1,8,10]oxadiazacycloocta-decin-17-yl]methanesulfonamide] | –
17 | 107% | CS(=O)(=O)N[C@@H]1[C@@H]2Cc3cccc(c3)Oc3nc(ccc3Cl)OCC(=O)N2CC1(F)F [Example 96, N-[(15aS,16R)-7-chloro-17,17-difluoro-1-oxo-1,2,15a,16,17,18-hexahydro-15H-4,8-(azeno)-14,10-(metheno)pyrrolo[1,2-d][1,12,4]dioxazacyclo-heptadecin-16-yl]methanesulfonamide] | –
18 | 108% | Cc1ccc2nc1Oc1cccc(c1F)C[C@H]1[C@@H](NS(=O)(=O)C(C)C)C(F)(F)CN1C(=O)NC2 [Example 97, N-[(15aS,16R)-17,17,20-trifluoro-7-methyl-1-oxo-2,3,15a,16,17,18-hexahydro-1H,15H-4,8-(azeno)-14,10-(metheno)pyrrolo[1,2-j][1,8,10]oxadiazacyclo-heptadecin-16-yl]propane-2-sulfonamide] | –

Row | Molecule | OX2R agonist activity (3 μM, %) [1] | also measured
19 | N-[(15aS,16R)-17,17- difluoro-7-methyl-1-oxo- 2,3,15a,16,17,18-hexahydro- 1H,15H-4,8-(azeno)-10,14- (metheno)pyrrolo[1,2- j][1,8,10]oxadiazacyclo- heptadecin-16- yl]ethanesulfonamide [Example 6] | 99% | –
